Experimental data as given in ChEMBL document CHEMBL1201862, “PubChem BioAssay data set” (2004).
Calls of active or inactive are those of the source.

Experiments:
[1] = HEp-2 cell cytotoxicity, dose response, cytotoxicity control for RSV inhibitor project, HTS (AID 2410); format: functional; conditions: human respiratory syncytial virus
Vero = experiment: cells; format: functional, cell-based; conditions: Chlorocebus sabaeus
Escherichia coli [2] = experiment: microbe, parasite or virus in culture
Escherichia coli [3] = experiment: microbe, parasite or virus in culture; remark: listed apart in the source
Hexokinase-1 = target: T1, Hexokinase-1 (Homo sapiens, UniProt P19367); experiment: HK1 enzyme inhibition by HKDC1 hits, SAR follow-up, selectivity assay for HKDC1 inhibitor project, biochemical, set 2, resazurin fluorescence coupled readout (AID 588356); format: functional
T1 sequence (P19367 whole entry): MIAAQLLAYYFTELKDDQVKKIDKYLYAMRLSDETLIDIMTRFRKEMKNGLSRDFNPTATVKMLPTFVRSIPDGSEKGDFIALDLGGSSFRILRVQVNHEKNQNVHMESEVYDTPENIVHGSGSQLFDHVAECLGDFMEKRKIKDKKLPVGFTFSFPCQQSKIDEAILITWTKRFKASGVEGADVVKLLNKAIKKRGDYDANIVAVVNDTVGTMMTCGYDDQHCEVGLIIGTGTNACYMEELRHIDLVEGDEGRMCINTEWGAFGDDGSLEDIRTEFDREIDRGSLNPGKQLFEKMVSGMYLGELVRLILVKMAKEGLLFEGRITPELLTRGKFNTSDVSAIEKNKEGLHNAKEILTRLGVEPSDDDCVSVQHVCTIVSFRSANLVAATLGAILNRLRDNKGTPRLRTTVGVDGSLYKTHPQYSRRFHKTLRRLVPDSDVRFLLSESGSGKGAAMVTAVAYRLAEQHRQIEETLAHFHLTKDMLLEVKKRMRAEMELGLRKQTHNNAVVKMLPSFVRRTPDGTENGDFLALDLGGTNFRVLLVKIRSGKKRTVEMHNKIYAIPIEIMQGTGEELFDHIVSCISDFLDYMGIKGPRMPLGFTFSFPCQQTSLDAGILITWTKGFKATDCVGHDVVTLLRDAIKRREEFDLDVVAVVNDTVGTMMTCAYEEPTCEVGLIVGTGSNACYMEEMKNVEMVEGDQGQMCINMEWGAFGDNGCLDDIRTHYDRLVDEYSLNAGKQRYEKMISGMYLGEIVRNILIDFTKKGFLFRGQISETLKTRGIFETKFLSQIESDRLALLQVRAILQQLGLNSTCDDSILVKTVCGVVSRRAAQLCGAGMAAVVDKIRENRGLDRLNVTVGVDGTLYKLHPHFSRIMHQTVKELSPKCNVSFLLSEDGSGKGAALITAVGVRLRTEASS

Hexokinase HKDC1 = target: T2, Hexokinase HKDC1 (Homo sapiens, UniProt Q2TB90); experiment: HKDC1 hexokinase inhibitors, SAR follow-up, biochemical, set 2 (AID 588355); format: functional
T2 sequence (Q2TB90 whole entry): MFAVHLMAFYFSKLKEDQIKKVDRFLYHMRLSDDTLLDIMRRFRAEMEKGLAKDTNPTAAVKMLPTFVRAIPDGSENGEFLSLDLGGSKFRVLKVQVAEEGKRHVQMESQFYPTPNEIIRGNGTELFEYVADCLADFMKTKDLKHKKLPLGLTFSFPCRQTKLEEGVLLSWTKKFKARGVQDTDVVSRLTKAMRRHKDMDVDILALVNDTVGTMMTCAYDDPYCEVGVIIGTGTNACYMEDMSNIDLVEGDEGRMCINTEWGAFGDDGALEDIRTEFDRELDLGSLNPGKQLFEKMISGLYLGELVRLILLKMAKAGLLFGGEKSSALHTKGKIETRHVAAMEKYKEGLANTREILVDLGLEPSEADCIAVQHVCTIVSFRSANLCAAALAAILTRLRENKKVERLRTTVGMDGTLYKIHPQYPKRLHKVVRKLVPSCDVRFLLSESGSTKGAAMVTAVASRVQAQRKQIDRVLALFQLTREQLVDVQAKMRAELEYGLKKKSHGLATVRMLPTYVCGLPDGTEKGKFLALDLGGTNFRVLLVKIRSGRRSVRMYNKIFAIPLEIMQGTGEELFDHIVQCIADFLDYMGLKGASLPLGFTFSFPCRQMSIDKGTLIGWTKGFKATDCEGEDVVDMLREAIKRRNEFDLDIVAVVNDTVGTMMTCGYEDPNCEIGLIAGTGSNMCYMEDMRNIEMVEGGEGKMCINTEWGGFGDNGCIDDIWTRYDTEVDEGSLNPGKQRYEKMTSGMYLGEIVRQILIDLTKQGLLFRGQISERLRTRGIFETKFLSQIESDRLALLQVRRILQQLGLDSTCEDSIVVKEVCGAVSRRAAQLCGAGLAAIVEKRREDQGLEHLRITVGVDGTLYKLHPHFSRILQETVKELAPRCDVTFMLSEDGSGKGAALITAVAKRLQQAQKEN

[4] = target: T3, Heat shock factor protein 1 (Mus musculus, UniProt P38532); experiment: inhibition of MG132-induced HSE-luciferase signal, confirmation, cell-based, NIH3T3, luminescence, dose retest (AID 2382); format: functional;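 further: NIH3T3 fibroblasts with HSF1-driven luciferase reporter stressed by proteasome inhibitor MG132; luminescence from HSF1-driven luciferase expression after 8 hours of MG132 stress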
T3 sequence (P38532 whole entry): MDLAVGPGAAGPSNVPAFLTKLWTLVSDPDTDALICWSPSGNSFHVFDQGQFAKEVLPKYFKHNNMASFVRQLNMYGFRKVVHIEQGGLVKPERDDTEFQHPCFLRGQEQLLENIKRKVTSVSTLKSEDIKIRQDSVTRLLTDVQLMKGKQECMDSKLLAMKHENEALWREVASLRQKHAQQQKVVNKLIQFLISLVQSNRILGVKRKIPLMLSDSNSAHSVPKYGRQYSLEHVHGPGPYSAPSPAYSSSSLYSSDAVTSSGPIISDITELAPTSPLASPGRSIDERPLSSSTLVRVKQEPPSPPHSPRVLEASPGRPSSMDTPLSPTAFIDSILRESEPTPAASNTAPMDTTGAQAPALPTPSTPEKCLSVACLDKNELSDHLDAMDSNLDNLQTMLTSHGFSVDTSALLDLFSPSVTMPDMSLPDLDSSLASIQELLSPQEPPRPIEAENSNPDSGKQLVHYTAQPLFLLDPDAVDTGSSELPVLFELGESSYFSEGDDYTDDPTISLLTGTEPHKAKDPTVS

[5] = target: Luciferin 4-monooxygenase (Photuris pensylvanica, UniProt Q27757); experiment: firefly luciferase enzyme inhibitors, dose response, counter-screen for HSF-1 reporter inhibitor project, biochemical, Cell Titer Glo, luminescence, cherry-picks (AID 588847)
[6] = target: Guanyl-specific ribonuclease T1 (Aspergillus oryzae (strain ATCC 42149 / RIB 40), UniProt P00651); experiment: RNase T1 inhibitors, dose response, counter-screen for TPT1 inhibitor project, biochemical, fluorescence polarization, 1536-well (AID 2167)
[7] = target: Likely tRNA 2'-phosphotransferase (Candida albicans (strain SC5314 / ATCC MYA-2876) (Yeast), UniProt Q5A7N4); experiment: TPT1 tRNA phosphotransferase inhibitors, dose response, biochemical, fluorescence polarization (AID 2160)
[8] = target: Beta-adrenergic receptor kinase 1 (Homo sapiens, UniProt P25098); experiment: aptamer displacement from bead-bound GRK2 – biochemical, cherry pick 1, bead flow cytometry, dose response (AID 504500)
Beta-adrenergic receptor kinase 1, sequence (P25098 whole entry): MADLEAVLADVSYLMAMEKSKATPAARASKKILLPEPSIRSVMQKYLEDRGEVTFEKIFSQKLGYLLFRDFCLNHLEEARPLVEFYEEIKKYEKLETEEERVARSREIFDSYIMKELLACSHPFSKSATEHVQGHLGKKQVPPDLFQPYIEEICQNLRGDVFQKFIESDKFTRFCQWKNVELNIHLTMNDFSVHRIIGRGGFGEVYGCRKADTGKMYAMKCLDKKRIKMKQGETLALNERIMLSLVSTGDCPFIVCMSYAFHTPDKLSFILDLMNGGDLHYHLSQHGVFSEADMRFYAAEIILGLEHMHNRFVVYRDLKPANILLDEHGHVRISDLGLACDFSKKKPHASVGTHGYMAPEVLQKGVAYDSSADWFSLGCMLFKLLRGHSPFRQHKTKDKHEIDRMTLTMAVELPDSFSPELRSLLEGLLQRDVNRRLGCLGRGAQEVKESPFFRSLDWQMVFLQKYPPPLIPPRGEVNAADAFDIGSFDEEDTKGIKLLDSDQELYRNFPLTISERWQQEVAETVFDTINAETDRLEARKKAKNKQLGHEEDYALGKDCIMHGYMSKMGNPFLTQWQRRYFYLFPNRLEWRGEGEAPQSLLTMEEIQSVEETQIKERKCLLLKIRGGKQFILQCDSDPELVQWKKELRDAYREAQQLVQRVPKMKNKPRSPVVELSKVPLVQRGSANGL

Luciferin 4-monooxygenase, sequence (Q27757 whole entry): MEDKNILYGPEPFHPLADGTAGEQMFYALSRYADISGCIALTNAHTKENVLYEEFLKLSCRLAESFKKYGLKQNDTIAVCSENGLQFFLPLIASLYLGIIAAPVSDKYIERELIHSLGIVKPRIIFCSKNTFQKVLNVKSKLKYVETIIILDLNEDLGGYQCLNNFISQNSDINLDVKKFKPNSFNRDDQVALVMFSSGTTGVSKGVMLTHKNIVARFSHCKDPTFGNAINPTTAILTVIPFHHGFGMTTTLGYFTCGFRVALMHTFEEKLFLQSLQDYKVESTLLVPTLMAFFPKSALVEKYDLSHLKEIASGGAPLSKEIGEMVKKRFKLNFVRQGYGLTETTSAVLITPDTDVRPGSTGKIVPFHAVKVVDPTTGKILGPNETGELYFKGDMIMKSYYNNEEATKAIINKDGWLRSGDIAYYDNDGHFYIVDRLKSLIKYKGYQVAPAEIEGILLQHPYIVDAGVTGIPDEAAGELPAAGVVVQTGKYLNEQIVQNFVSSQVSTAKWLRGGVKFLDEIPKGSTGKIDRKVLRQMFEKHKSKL
Guanyl-specific ribonuclease T1, sequence (P00651 whole entry): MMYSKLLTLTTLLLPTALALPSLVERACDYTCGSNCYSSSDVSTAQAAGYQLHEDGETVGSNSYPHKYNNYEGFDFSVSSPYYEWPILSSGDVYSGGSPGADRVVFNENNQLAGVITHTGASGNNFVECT
Likely tRNA 2'-phosphotransferase, sequence (Q5A7N4 whole entry): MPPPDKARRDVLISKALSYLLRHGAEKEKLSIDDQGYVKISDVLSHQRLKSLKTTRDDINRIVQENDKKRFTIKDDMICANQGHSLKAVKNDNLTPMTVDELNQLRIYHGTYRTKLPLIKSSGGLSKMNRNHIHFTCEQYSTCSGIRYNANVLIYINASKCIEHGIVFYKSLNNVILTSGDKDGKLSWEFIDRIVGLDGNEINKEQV

Q: What does the source list for Cc1cccc(NC(=O)CSc2nc3ccccc3nc2N2CCCC2)c1?
A: CC50 [1]: 13.7 µM (active); IC50 (Vero): > 25 µM (active)

Q: What does the source list for CCN(CC)CC(=O)c1c[nH]c2ccc(OC)cc12?
A: AC50 (Escherichia coli [2]): 26.5 µM (active); AC50 (Escherichia coli [3]): 25.6 µM (active)

Q: With CNc1cc2n(c(=O)n1)CCc1cc(OC)c(OC)cc1-2 as the compound, how does the IC50 (Hexokinase-1) read?
A: > 80 µM (inactive)

Q: What about the IC50 (Hexokinase HKDC1) of the same compound?
A: > 80 µM (inactive)

Q: With CC(C)(C)c1ccc(/C=N/Nc2cccc(C(=O)O)c2)cc1 as the compound, how does the EC50 [4] read?
A: < 0.16 µM (active)

Q: What about the AC50 [5] of the same compound?
A: 3.37 µM (active)

Q: For NC(=O)c1cc[n+](CC2=C(C(=O)O)N3C(=O)[C@@H](NC(=O)[C@@H](c4ccccc4)S(=O)(=O)[O-])[C@H]3SC2)cc1 [CEFSULODIN SODIUM], which IC50 [6] is on record?
A: > 55.7 µM (not active)

Q: And the IC50 [7]?
A: 1.69 µM (active)

Q: What about the EC50 [8] of the same compound?
A: 0.07 µM (active)
